The values that follow are results of earlier work, collected in PMC6738313 (The Oncologist, 2019).

Molecules are shown by their SMILES.

One series relates to CYP3A4/5. The note with it: clinical data.
The test system of series [1] is patients with metastatic renal cell carcinoma.
In series [2] the test system is first-line poor- or intermediate-risk patients with mRCC. The note with it: CABOSUN.

As to `CNC(=O)c1ccccc1Sc1ccc2c(/C=C/c3ccccn3)n[nH]c2c1` [Axitinib], in the series on CYP3A4/5, the Metabolic pathway entry was “primarily metabolized by CYP3A4/5”. In addition, the “Progression-free survival (PFS)” value in series [1] (axitinib single agent, first-line therapy, 95% CI 7.2–12.1) is 10.1 months. Moreover, in series [1] (single-agent axitinib, first-line mRCC, phase III trial versus sorafenib), the “Objective response rate (ORR)” value was 32%.

In the case of `C[C@@H](Oc1cc(-c2cnn(C3CCNCC3)c2)cnc1N)c1c(Cl)ccc(F)c1Cl` [crizotinib, Crizotinib], the “CYP3A4/5 inhibition (classification)” value in the series with CYP3A4/5 is listed as “moderate time‐dependent CYP3A4/5 inhibitor”.

For the compound `COc1cc2nccc(Oc3ccc(NC(=O)C4(C(=O)Nc5ccc(F)cc5)CC4)cc3)c2cc1OC` [cabozantinib], the “Estimated progression-free survival (PFS)” value in series [2] (95% CI 6.2–8.8) is on record as 8.2 months. Moreover, the “Objective response rate (ORR)” value in series [2] (first-line poor- or intermediate-risk patients with mRCC) is on record as 46%.
